# Results as given in patent US20220120736A1, “METHODS AND ASSAYS FOR MODULATING GENE TRANSCRIPTION BY MODULATING CONDENSATES” (Whitehead Institute for Biomedical Research, priority 2018, published 2022).
# Experiments:
# Assay type in all cases: cell-based
# [1] = system: mutant (Y537S) and mutant (D538G) ER activation domain; experiment: Lac array assay in U2OS cells, mutant ER fusions; settings: Y537S and D538G mutants, presence versus absence of estrogen
# Excerpt: A Lac binding domain-CFP-ER activation domain (ER) fusion protein, Lac binding domain-CFP-mutant (Y537S) ER activation domain fusion protein, or Lac binding domain-CFP-ER mutant (D538G) activation domain fusion protein was introduced into U2OS cells bearing the Lac operon array. […] Same experimental conditions as FIG. 39.
# Constructs were assembled by NEB HIFI cloning in pSV2 mammalian expression vector containing an SV40 promoter driving expression of a CFP-LacI fusion protein. The activation domains and mutant activation domains of […] were fused by the c-terminus to this recombinant protein, joined by the linker sequence […] (SEQ ID NO: 17). U2OS-268 cells containing a stably integrated array of ˜51,000 Lac-repressor binding sites (a gift of the Spector laboratory) were transfected using lipofectamine 3000 (Thermofisher L3000015). 24 hours after transfection, cells were plated on fibronectin-coated glass coverslips. After 24 hours on glass coverslips, cells were fixed for immunofluorescence with a MED1 antibody (Table S4) as described above and imaged, by spinning disk confocal microscopy.
# OCT4 (FKBP-tagged) = target: T1, OCT4 (FKBP-tagged) (Mus musculus, UniProt P20263+Q8C7D2); experiment: MED1 IF with DNA FISH at Nanog after OCT4 degradation; settings: dTag versus DMSO
# T1 construct: an ESC line bearing endogenous knock-in of DNA encoding the FKBP protein fused to OCT4; HA (C); endogenous in cells; host or cells: V6.5 mouse ES cells (Med1-mEGFP background), homozygous Oct4-FKBP knock-in
# T1 sequence (P20263 with tags, fused parts or gaps): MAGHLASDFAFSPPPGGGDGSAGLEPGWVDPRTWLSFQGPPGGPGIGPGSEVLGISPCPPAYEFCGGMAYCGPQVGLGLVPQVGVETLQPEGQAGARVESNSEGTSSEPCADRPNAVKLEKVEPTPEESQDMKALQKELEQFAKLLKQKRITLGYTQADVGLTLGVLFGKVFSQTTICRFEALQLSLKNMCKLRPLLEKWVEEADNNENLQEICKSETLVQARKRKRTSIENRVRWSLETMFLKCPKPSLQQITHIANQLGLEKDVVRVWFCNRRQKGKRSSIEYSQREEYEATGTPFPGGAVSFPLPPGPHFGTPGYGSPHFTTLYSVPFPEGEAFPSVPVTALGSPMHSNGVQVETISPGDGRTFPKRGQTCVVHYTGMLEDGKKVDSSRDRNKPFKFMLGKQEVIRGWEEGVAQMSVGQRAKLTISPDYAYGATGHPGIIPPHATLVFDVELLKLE
# T1 sequence (Q8C7D2 whole entry, the tested form may be a part): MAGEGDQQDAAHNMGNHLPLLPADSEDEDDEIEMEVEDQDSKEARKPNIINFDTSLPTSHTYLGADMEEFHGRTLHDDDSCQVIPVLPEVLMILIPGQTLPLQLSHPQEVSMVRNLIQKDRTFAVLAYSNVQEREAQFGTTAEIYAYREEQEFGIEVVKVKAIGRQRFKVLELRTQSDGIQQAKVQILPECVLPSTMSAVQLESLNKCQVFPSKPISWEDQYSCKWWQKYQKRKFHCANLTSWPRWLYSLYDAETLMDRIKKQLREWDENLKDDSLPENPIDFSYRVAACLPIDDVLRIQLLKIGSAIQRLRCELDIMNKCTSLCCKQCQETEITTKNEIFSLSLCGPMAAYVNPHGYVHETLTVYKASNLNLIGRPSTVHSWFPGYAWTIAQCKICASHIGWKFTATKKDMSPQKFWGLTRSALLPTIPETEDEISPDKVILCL
# T1 sequence (Q3U1J4 whole entry partner, the tested form may be a part): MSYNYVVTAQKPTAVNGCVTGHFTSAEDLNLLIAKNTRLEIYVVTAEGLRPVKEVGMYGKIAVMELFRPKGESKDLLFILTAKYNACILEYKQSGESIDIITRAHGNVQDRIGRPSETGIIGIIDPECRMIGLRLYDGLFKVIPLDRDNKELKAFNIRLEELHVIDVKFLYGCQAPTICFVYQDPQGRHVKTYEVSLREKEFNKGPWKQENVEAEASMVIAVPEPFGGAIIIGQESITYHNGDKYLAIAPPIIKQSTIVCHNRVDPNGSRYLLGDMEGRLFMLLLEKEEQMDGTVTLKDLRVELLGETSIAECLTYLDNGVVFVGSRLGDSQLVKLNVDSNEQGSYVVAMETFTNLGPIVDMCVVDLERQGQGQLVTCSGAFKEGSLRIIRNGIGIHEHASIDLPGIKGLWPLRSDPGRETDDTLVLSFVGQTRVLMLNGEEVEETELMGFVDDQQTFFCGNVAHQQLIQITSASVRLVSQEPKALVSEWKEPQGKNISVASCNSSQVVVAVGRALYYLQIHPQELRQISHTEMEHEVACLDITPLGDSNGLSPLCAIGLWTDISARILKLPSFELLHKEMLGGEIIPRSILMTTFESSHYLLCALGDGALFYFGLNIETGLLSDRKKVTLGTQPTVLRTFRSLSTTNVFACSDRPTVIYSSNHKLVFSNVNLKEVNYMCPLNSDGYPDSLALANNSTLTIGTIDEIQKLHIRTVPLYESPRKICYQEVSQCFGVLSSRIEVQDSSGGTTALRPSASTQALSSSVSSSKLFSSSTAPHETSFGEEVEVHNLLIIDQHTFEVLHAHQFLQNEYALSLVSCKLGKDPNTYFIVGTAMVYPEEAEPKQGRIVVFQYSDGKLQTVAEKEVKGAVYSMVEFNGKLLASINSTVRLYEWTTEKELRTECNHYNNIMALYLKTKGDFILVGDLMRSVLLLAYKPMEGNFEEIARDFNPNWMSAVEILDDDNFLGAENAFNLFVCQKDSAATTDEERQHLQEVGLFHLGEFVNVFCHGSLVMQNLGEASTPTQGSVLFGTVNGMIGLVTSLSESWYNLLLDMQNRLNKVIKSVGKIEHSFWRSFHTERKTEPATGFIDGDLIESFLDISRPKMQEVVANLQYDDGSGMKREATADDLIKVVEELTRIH
# Protocol: Immunofluorescence was performed as previously above. After incubating the cells with the secondary antibodies, cells were washed three times in PBS for 5 min at RT, fixed with 4% PFA in PBS for 10 min and washed three times in PBS. Cells were incubated in 70% ethanol, 85% ethanol and then 100% ethanol for 1 minute at RT. Probe hybridization mixture was made mixing 7 μL of FISH Hybridization Buffer (Agilent G9400A), 1 μl of FISH probes (see below for region) and 2 μL of water. 5 μL of mixture was added on a slide and coverslip was placed on top (cell-side toward the hybridization mixture). Coverslip was sealed using rubber cement. Once rubber cement solidified, genomic DNA and probes were denatured at 78° C. for 5 minutes and slides were incubated at 16° C. in the dark O/N. The coverslip was removed from slide and incubated in pre-warmed Wash buffer 1 (Agilent, G9401A) at 73° C. for 2 minutes and in Wash Buffer 2 (Agilent, G9402A) for 1 minute at RT. […]
# For analysis of RNA FISH with immunofluorescence custom in-house MATLAB™ scripts were written to process and analyze 3D image data gathered in FISH (RNA/DNA) and IF channels. […] The IF signal centered at FISH foci for each FISH and IF pair are then combined and an average intensity projection is calculated, providing averaged data for IF signal intensity within a l×l square centered at FISH foci. […]
# [2] = system: ER LBD (GAL4 DNA-binding domain fusion) in HEK293T cells; experiment: GAL4 transactivation assay; settings: elevated MED1 levels; 10 nM Tamoxifen, 24 hours
# Excerpt: (SEQ ID NO: 14). […] For high MED1 conditions, a construct with a mammalian expression vector containing a PGK promoter driving the expression of MED1 fused to GFP was co-transfected.
# [3] = system: ER LBD-MED1 condensate in U2OS-Lac cells; experiment: Live cell imaging of U2OS-Lac cells with endogenously tagged MED1-mEGFP; settings: after 10 nM B-Estradiol 45 minutes; 10 uM 4-Hydroxytamoxifen, 30 minutes
# Protocol: Cells were imaged pre-treatment and 30 minutes after treatment with a 1:1000 dilution of DMSO or 10 uM 4-Hydroxytamoxifen in Estrogen-free DMEM. Quantification was performed in FIJI; the instrument background was subtracted from the average signal intensity in the array, then divided by the instrument background subtracted from an average nuclear signal to yield the normalized signal intensity.
smiles,measurement,setting,value
"C[C@]12CC[C@@H]3c4ccc(O)cc4CC[C@H]3[C@@H]1CC[C@@H]2O [estrogen, B-Estradiol]","condensate formation, CFP signal of fusion protein",[1],did not significantly affect condensate formation
same,"condensate formation, mediator immunofluorescence",[1],did not significantly affect condensate formation
CC[C@H](C(=O)N1CCCC[C@H]1C(=O)O[C@H](CCc1ccc(OC)c(OC)c1)c1ccccc1OCC(=O)NCCCCCCCCNc1ccc2c(c1)C(=O)N(C1CCC(=O)NC1=O)C2=O)c1cc(OC)c(OC)c(OC)c1 (some centres unmarked) [dTag],MED1 condensates at Nanog,OCT4 (FKBP-tagged),reduction in MED1 condensates at Nanog
CC/C(=C(\c1ccccc1)c1ccc(OCCN(C)C)cc1)c1ccccc1 [tamoxifen],GAL4 transactivation with tamoxifen-bound ER,[2],showed activation
same,"Effect on ER LBD-MED1 condensate, live cell imaging",[3],dissolves the ER LBD-MED1 condensate
